Reference: article PMC6748410, “A phase 2 study of an oral mTORC1/mTORC2 kinase inhibitor (CC-223) for non-pancreatic neuroendocrine tumors with or without carcinoid symptoms” (PLoS ONE, 2019)
Like-named read-outs stand apart in the source and are kept apart here.

Assays:
[1] = parameters: method as in PMID 26177599; settings: patients with advanced solid tumors; oral once daily; cited from earlier work
[2] = 28-day GLP toxicology study, rat; type: in vivo
Experimental: (§1) A dose of 7.5 mg/day is proposed as the starting dose in this protocol. This dose is based on the recommendations in the March 2010 FDA Guidance for Industry entitled, “S9 Nonclinical Evaluation for Anticancer Pharmaceuticals,” where a start dose for first administration in humans should be either one-tenth the STD10 in rodents, or one-sixth of the HNSTD if the nonrodent is the most appropriate species. The conversion factors from the July 2005 FDA Guidance for Industry entitled, “Estimating the Maximum Safe Starting Dose in Initial Clinical Trials for Therapeutics in Adult Healthy Volunteers,” were used to convert the animal dose to the HED. The dose was converted to milligrams based on a 60-kg human body weight.
(§2) Species Animal Dose HED (mg/kg) HED (mg) Safety Factor Start Dose (mg) […]
(§3) Since the dog was identified as the most sensitive species in the 28-day GLP toxicology studies, the start dose for the study would be 8.2 mg/day. Based on available dosage strengths of the IP, a dose of 7.5 mg/day of CC-223 is deemed to be an acceptable starting dose for this initial trial in […]
(§4) Part B will consist of approximately 230 patients with selected tumor types to further assess the safety profile and provide preliminary efficacy information. […]

[3] = system: serum hormones (CgA, gastrin, glucagon, serotonin); experiment: Serum hormone changes from baseline; type: in vivo, human; settings: among 35 patients with elevated baseline levels in at least one hormone
Experimental: (§5) Central laboratories conducted serial stimulated blood biomarker assays in monocytes (CD14+) for p4E-BP1 and pPKB (also known as pAKT) for assessment of mTORC1 and mTORC2 inhibition, respectively. Monthly changes from baseline for chromogranin A (CgA), and for other serum hormones if elevated, were assayed locally.
This phase 1/2 study was not powered for inferential statistics and mostly descriptive statistics were used. All patients dosed with CC-223 were included in the safety analysis. The efficacy analysis included all patients completing at least one cycle of drug who had both baseline and one post-baseline tumor efficacy assessment, unless otherwise specified. Categorical baseline variables including tumor type-specific characteristics were summarized using frequency counts and percentage. Continuous demographic and baseline characteristic variables were summarized by descriptive statistics. A Wilcoxon signed rank test was used to analyse change from baseline in serum hormone levels at selected scheduled visits.

[4] = system: well-differentiated NET of non-pancreatic gastrointestinal or unknown origin; experiment: FDG PET SUV change from baseline to day 15 of cycle 1; type: in vivo, human
Experimental: (§6) Metabolic changes were assessed by percent change in total of standardized uptake value (SUV) of 2-^18F-fluoro-2-deoxyglucose (FDG) with PET scanning from baseline to day 15 in cycle 1. Carcinoid symptoms of flushing and diarrhea were documented monthly with a non-validated symptom questionnaire that was completed at each study visit. Patients reported whether they had experienced specific events, and the severity and/or frequency of these events. Symptom improvement was defined as ≥50% reduction in frequency and/or a 1-grade reduction in severity for each from baseline.

[5] = system: carcinoid symptoms of flushing and diarrhea; experiment: Carcinoid symptom questionnaire (flushing, diarrhea); type: in vivo, human
Experimental: as §6

p4E-BP1 (mTORC1) = experiment: Stimulated blood biomarker assay in monocytes (CD14+) for p4E-BP1 (mTORC1 inhibition); type: in vivo, human
Experimental: as §5

[6] = 28-day GLP toxicology study, dog; type: in vivo
Experimental: as §1, §2, §3, §4

[7] = Plasma pharmacokinetics of CC-223 and metabolite M1 in patients with NET; type: in vivo, human; settings: for CL/F / AUC / AUC(0-t) / Cmax / Vd/F: geometric mean (%CV, n); for Tmax / AUC / AUC(0-t) / Cmax / Vd/F: human, plasma; for Vd/F: read-out: Vz/F
Experimental: Blood for PK analysis was drawn on day 1 pre-dose and for up to 48 hours post-dose, and then on day 15 up to 8 hours post-dose. Urine on day 1 was collected within 30 minutes prior to dosing and at intervals up to 24 hours post-dose. Samples were assayed for CC-223 and the principal active metabolite (M1) using validated chiral liquid chromatography mass spectrometry. CC-223 PK parameters were calculated using dosing and sample collection times. Non-compartmental PK analysis was performed used WinNonlin Enterprise version 5.2 Model 200 and Model 210 (Certara, Princeton, NJ).

[8] = po, 30 mg/day, CC-223 30 mg/day oral, Day 1
[9] = po, 30 mg/day, CC-223 30 mg/day oral, Day 15, n = 1
[10] = po, 45 mg/day, CC-223 45 mg/day oral, Day 1

CO[C@H]1CC[C@H](N2C(=O)CNc3ncc(-c4ccc(C(C)(C)O)nc4)nc32)CC1 [CC-223]
Maximum tolerated dose (MTD) [1]: 45 mg/day
HED (human equivalent dose) of STD10 ([2]; 60-kg human body weight): 96 mg
HED (human equivalent dose) of STD10 ([2]; FDA conversion factors): 1.6 mg/kg
Patients with ≥50% decline from baseline in CgA [3]: 7 patients
Patients with ≥50% decline from baseline in gastrin [3]: 6 patients
Patients with ≥50% decline from baseline in glucagon [3]: 3 patients
Patients with ≥50% decline from baseline in serotonin [3]: 2 patients
Patients with at least a 25% reduction in SUV ([4]; 18 patients): 38.3%
Patients with at least a 15% reduction in FDG uptake ([4]; 21 patients): 44.7%
Mean percent decrease from baseline to day 15 in [18F]-FDG PET SUV ([4]; 31 patients, standard deviation 35.2%, P<0.0001): 32.0%
Symptom reduction at any time during the study: both flushing and diarrhea ([5]; 5 of 13 affected patients): 39%
Symptom reduction at any time during the study: flushing ([5]; 8 of 16 affected patients): 50%
Symptom reduction at any time during the study: diarrhea ([5]; 9 of 22 affected patients): 41%
p4E-BP1 median inhibition (p4E-BP1 (mTORC1); 30 mg, after multiple doses): 26%
p4E-BP1 median inhibition (p4E-BP1 (mTORC1); 30 mg, following a single dose): 9%
p4E-BP1 median inhibition (p4E-BP1 (mTORC1); 45 mg, 1.5 hours after a single dose): 37%
p4E-BP1 median inhibition (p4E-BP1 (mTORC1); 45 mg, after multiple doses): 47%
p4E-BP1 median biomarker inhibition relative to baseline (p4E-BP1 (mTORC1); across both dose level cohorts (45 mg or 30 mg), 1.5 hours after multiple dosing on day 15): > 26%
HED (human equivalent dose) of HNSTD ([6]; 60-kg human body weight): 49 mg
HED (human equivalent dose) of HNSTD ([6]; FDA conversion factors): 0.81 mg/kg
CL/F ([7]; CC-223 30 mg/day oral, Day 1): 34.0 (34.2, n = 3) L/h
CL/F ([7]; CC-223 45 mg/day oral, Day 1): 19.8 (20.1, n = 2) L/h
Tmax ([7]; oral, regardless of starting dose, read-out: Median Tmax): 1.5 to 3 h
AUC [7, 8]: 819 ng·h/mL
AUC(0-t) [7, 8]: 840 ng·h/mL
Cmax [7, 8]: 133 ng/mL
AUC [7, 9]: 776 ng·h/mL
AUC(0-t) [7, 9]: 776 ng·h/mL
Cmax [7, 9]: 154 ng/mL
Tmax ([7]; po, 30 mg/day, median (min, max, n), CC-223 30 mg/day oral, Day 1, read-out: Tmax): 1.7 h
Tmax ([7]; po, 30 mg/day, median (min, max, n), CC-223 30 mg/day oral, Day 15, read-out: Tmax): 1.5 h
AUC(0-t) [7, 10]: 1800 ng·h/mL
Cmax [7, 10]: 347 ng/mL
AUC ([7]; po, 45 mg/day, CC-223 45 mg/day oral, Day 1, n = 1): 1940 ng·h/mL
Tmax ([7]; po, 45 mg/day, median (min, max, n), CC-223 45 mg/day oral, Day 1, read-out: Tmax): 1.52 h
Vd/F ([7]; CC-223 30 mg/day oral, Day 1): 290 L
Vd/F ([7]; CC-223 45 mg/day oral, Day 1): 125 L
